Legend:
[1] = molecular target: Fibroblast growth factor receptor 2 (Homo sapiens) (UniProt P21802); assay: Inhibition of human FGFR2 at 18.6 nM by HotSpot assay relative to control
[2] = molecular target: T1, Serine/threonine-protein kinase NLK (Homo sapiens) (UniProt Q9UBE8); assay: Inhibition of human NLK at 18.6 nM by HotSpot assay relative to control
T1 sequence (whole entry): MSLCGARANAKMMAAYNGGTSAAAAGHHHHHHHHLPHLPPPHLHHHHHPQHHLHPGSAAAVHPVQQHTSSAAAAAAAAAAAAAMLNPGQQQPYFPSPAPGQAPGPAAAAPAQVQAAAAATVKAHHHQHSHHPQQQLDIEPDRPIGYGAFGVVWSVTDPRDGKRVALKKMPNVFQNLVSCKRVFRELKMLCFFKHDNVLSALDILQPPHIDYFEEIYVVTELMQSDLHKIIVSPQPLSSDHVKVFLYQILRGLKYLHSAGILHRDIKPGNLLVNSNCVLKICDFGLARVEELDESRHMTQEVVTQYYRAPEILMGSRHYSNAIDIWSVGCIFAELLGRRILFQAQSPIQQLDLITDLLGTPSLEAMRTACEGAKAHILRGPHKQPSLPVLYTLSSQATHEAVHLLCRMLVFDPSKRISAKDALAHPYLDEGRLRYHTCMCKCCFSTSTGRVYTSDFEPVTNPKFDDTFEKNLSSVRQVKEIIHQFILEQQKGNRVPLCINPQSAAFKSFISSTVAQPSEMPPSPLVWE

[3] = molecular target: T2, Mitogen-activated protein kinase 13 (Homo sapiens) (UniProt O15264); assay: Inhibition of human MAPK13 at 18.6 nM by HotSpot assay relative to control
T2 sequence (whole entry): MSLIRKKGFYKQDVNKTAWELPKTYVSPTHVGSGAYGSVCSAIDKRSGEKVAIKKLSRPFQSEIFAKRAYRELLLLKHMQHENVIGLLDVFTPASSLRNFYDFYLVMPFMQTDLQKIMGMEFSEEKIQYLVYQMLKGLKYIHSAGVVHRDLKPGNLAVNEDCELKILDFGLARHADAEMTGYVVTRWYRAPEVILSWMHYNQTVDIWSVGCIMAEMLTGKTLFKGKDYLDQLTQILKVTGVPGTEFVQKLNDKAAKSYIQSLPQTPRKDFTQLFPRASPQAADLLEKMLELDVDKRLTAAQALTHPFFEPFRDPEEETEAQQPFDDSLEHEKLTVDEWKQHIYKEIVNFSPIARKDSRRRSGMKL

[4] = molecular target: Serine/threonine-protein kinase PLK3 (Homo sapiens) (UniProt Q9H4B4); assay: Inhibition of human PLK3 at 18.6 nM by HotSpot assay relative to control
[5] = molecular target: T3, Testis-specific serine/threonine-protein kinase 2 (Homo sapiens) (UniProt Q96PF2); assay: Inhibition of human TSSK2 at 18.6 nM by HotSpot assay relative to control
T3 sequence (whole entry): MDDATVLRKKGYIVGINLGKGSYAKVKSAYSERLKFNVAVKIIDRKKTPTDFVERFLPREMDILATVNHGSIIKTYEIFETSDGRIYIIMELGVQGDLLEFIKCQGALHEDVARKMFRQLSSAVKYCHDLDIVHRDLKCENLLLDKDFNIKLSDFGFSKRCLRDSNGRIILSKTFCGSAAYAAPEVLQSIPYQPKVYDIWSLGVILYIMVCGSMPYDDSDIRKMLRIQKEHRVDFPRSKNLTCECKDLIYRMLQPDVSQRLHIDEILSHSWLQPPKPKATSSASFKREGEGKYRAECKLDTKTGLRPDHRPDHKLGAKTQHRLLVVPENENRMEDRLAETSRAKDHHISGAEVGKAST

[6] = molecular target: T4, TGF-beta receptor type-1 (Homo sapiens) (UniProt P36897); assay: Inhibition of human ALK5 at 1.82 nM by HotSpot assay relative to control
T4 sequence (whole entry): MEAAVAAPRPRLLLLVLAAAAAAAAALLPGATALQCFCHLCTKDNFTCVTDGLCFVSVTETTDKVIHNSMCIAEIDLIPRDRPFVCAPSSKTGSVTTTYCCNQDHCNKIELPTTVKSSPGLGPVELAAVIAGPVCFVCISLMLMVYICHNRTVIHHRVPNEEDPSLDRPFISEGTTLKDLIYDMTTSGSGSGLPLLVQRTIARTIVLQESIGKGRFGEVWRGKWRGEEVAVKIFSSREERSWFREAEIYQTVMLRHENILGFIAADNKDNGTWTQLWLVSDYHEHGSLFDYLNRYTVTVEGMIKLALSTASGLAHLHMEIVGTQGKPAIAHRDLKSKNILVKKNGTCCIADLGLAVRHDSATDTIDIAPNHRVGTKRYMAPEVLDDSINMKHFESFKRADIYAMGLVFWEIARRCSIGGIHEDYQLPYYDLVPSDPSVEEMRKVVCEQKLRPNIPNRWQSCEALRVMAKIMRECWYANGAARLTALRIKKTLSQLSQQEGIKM

[7] = molecular target: Serine/threonine-protein kinase Nek4 (Homo sapiens) (UniProt P51957); assay: Inhibition of human NEK4 at 1.82 nM by HotSpot assay relative to control
[8] = molecular target: BDNF/NT-3 growth factors receptor (Homo sapiens) (UniProt Q16620); assay: Inhibition of human TRKB at 1.82 nM by HotSpot assay relative to control
[9] = molecular target: T5, Tyrosine-protein kinase ZAP-70 (Homo sapiens) (UniProt P43403); assay: Inhibition of human ZAP70 at 1.82 nM by HotSpot assay relative to control
T5 sequence (whole entry): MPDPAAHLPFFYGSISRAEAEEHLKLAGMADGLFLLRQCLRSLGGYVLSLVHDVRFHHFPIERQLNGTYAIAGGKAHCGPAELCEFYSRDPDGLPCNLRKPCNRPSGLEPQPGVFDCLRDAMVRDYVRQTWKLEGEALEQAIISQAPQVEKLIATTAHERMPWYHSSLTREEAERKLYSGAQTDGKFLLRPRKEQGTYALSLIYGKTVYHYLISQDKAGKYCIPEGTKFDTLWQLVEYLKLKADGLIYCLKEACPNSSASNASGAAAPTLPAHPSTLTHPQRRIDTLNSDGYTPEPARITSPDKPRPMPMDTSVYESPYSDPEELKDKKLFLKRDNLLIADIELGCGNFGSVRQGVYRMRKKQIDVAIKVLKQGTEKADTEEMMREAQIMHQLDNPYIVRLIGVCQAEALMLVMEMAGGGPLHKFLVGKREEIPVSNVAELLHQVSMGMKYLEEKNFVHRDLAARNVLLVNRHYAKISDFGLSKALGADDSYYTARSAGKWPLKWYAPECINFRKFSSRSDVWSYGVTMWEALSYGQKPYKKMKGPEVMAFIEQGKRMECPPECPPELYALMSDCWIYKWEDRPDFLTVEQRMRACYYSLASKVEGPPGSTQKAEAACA

Fibroblast growth factor receptor 2 (Homo sapiens), sequence (P21802 22-821 limits assumed): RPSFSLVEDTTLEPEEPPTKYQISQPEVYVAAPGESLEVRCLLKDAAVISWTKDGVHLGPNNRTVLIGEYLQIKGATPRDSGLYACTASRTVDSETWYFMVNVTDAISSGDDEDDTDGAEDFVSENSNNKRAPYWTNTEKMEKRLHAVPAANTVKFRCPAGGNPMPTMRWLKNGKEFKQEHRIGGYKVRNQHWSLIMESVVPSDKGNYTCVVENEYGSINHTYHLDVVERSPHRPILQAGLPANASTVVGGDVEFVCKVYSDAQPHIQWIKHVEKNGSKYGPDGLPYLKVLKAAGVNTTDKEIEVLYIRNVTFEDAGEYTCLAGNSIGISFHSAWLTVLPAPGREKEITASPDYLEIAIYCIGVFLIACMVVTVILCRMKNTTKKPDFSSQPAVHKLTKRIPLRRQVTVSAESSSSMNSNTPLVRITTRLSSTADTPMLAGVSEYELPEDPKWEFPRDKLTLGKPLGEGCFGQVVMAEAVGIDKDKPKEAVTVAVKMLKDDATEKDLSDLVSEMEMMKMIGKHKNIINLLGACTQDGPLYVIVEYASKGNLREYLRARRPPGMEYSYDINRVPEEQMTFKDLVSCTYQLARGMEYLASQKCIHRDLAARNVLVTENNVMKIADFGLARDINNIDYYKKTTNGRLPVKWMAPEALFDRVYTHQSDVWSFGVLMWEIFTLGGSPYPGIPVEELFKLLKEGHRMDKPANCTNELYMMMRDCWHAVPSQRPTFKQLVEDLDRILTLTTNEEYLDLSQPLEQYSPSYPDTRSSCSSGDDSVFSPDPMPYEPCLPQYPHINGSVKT
Serine/threonine-protein kinase PLK3 (Homo sapiens), sequence (Q9H4B4 whole entry, looked up): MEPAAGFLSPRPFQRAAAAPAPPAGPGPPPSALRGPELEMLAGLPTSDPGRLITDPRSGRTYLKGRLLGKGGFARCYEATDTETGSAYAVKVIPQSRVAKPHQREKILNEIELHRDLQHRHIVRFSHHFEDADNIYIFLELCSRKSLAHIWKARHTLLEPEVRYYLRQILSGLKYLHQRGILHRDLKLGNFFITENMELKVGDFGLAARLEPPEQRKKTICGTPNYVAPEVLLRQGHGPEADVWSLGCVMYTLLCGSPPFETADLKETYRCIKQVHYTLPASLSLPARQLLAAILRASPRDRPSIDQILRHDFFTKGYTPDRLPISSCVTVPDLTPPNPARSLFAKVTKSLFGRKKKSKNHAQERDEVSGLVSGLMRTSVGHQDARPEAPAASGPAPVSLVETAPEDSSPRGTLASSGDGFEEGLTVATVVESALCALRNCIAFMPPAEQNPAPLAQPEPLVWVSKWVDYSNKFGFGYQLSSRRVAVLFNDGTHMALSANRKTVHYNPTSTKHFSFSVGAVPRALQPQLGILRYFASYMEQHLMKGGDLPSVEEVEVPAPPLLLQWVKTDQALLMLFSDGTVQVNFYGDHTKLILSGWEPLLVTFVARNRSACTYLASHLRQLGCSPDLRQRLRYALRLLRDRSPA
Serine/threonine-protein kinase Nek4 (Homo sapiens), sequence (P51957 whole entry, looked up): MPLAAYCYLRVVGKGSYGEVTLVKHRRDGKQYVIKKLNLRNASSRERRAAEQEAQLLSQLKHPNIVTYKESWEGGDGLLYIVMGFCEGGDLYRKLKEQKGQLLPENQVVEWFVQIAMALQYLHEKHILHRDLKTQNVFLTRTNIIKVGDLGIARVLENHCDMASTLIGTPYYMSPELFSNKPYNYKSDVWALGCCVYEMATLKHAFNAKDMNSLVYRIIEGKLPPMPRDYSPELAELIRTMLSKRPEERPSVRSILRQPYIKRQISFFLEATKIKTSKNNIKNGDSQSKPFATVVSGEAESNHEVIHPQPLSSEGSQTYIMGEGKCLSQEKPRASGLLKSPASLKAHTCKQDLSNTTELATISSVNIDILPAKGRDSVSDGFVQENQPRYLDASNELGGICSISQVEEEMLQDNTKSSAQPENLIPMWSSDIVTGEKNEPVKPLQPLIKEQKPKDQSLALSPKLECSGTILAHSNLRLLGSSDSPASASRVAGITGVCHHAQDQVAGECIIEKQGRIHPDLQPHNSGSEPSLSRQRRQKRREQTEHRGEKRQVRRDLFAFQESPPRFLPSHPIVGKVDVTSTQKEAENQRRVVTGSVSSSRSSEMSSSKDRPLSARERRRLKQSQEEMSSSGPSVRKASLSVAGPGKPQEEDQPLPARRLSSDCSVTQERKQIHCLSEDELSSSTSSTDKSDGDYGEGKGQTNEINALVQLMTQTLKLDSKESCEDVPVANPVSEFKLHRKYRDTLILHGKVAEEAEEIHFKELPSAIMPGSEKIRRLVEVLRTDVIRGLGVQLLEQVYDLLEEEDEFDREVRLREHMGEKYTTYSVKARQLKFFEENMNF
BDNF/NT-3 growth factors receptor (Homo sapiens), sequence (Q16620 32-822 limits assumed): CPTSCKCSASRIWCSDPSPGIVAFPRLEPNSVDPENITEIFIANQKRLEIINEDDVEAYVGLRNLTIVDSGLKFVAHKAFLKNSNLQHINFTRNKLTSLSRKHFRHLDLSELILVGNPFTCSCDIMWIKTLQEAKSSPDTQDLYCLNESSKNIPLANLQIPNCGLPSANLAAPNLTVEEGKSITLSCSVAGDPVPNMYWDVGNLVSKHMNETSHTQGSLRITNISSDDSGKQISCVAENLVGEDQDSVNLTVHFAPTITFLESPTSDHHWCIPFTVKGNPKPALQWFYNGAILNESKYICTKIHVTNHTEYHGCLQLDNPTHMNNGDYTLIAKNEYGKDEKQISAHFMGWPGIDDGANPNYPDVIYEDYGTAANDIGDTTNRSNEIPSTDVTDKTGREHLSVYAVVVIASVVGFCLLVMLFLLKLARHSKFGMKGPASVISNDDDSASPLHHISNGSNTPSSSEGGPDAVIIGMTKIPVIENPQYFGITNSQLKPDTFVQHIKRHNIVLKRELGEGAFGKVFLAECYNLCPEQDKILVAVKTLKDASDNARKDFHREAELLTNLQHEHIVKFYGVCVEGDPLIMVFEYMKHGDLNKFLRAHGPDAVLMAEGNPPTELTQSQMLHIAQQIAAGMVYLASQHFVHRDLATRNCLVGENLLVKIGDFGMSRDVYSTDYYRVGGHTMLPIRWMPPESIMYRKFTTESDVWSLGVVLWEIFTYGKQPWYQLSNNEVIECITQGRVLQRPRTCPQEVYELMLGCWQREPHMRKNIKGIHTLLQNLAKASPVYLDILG

| inhibition [1] [%] | inhibition [2] [%] | inhibition [3] [%] | inhibition [4] [%] | inhibition [5] [%] | inhibition [6] [%] | inhibition [7] [%] | inhibition [8] [%] | inhibition [9] [%] | SMILES |
| --- | --- | --- | --- | --- | --- | --- | --- | --- | --- |
| -3.25 | -1.35 | -4.06 | 3.09 | -3.7 | – | – | – | – | C[C@]1(O)C[C@@H](c2nc(-c3ccc4ccc(-c5ccccc5)nc4c3)c3c(N)nccn32)C1 |
| – | – | – | – | – | -0.63 | -3.35 | 69.6 | -2.24 | C[C@@]1(C(=O)Nc2ccc(F)nc2)CCCN1c1nc(Nc2cc(C3CC3)n[nH]2)c2cccn2n1 |
